Measurements published in PubChem BioAssay (NCI).
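The compound was tested at five concentrations on cells cultured in 96-well plates, with a 48-hour exposure period. Definition used: TGI = concentration required for complete inhibition of growth.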

Legend:
Assay in all cases: NCI anticancer screen, dose series, 48 h
[1] = tested on: SNB-19 CNS
[2] = tested on: DMS 273 small cell lung
[3] = tested on: SK-MEL-5 melanoma
[4] = tested on: A498 renal
[5] = tested on: OVCAR-8 ovarian
[6] = tested on: KM20L2 colon
[7] = tested on: SK-OV-3 ovarian
[8] = tested on: SK-MEL-2 melanoma
[9] = tested on: XF 498 CNS
[10] = tested on: HCC-2998 colon
[11] = tested on: U251 CNS
[12] = tested on: K-562 leukemia
[13] = tested on: ACHN renal
[14] = tested on: OVCAR-5 ovarian
[15] = tested on: COLO 205 colon
[16] = tested on: LXFL 529 NSCLC
[17] = tested on: HCT-116 colon
[18] = tested on: LOX IMVI melanoma
[19] = tested on: NCI-H522 lung
[20] = tested on: UO-31 renal
[21] = tested on: SNB-75 CNS
[22] = tested on: NCI-H226 lung
[23] = tested on: SF-295 CNS
[24] = tested on: SN12C renal
[25] = tested on: OVCAR-4 ovarian
[26] = tested on: HOP-18 NSCLC
[27] = tested on: KM12 colon
[28] = tested on: 786-0 renal
[29] = tested on: NCI-H460 lung
[30] = tested on: SF-268 CNS
[31] = tested on: HOP-92 NSCLC
[32] = tested on: A549 NSCLC
[33] = tested on: M14 melanoma
[34] = tested on: RXF 393 renal
[35] = tested on: UACC-62 melanoma
[36] = tested on: DMS 114 small cell lung
[37] = tested on: SR leukemia
[38] = tested on: NCI-H23 lung
[39] = tested on: SK-MEL-28 melanoma
[40] = tested on: HL-60(TB) leukemia
[41] = tested on: CAKI-1 renal
[42] = tested on: SF-539 CNS
[43] = tested on: M19-MEL melanoma
[44] = tested on: UACC-257 melanoma
[45] = tested on: OVCAR-3 ovarian
[46] = tested on: HOP-62 NSCLC
[47] = tested on: IGROV1 ovarian
[48] = tested on: DLD-1 colon
[49] = tested on: RPMI-8226 leukemia
[50] = tested on: SW-620 colon
[51] = tested on: MALME-3M melanoma
[52] = tested on: SNB-78 CNS
[53] = tested on: EKVX NSCLC
[54] = tested on: HCT-15 colon
[55] = tested on: TK-10 renal
[56] = tested on: MOLT-4 leukemia
[57] = tested on: HT29 colon
[58] = tested on: CCRF-CEM leukemia

Work on OC1[C@H]([C@H]2CCCC[C@@H]2O)CCC[C@@H]1[C@@H]1CCCC[C@H]1O (stereo not given in full) yielded a TGI [1] of over 100 µM, a TGI [2] of over 100 µM and a TGI [3] of over 100 µM. For the same molecule, the TGI [4] was over 100 µM, the TGI [5] was over 100 µM and the TGI [6] was over 100 µM. The TGI [7] was over 100 µM, the TGI [8] was over 100 µM and the TGI [9] was over 100 µM. The TGI [10] was over 100 µM, the TGI [11] was over 100 µM and the TGI [12] was over 100 µM. It also gave a TGI [13] of over 100 µM, a TGI [14] of over 100 µM and a TGI [15] of over 100 µM. It also gave a TGI [16] of over 100 µM, a TGI [17] of over 100 µM and a TGI [18] of over 100 µM. It also gave a TGI [19] of over 100 µM, a TGI [20] of over 100 µM and a TGI [21] of over 100 µM. For the same molecule, the TGI [22] was over 100 µM, the TGI [23] was over 100 µM and the TGI [24] was over 100 µM. It also gave a TGI [25] of over 100 µM, a TGI [26] of over 100 µM and a TGI [27] of over 100 µM. For the same molecule, the TGI [28] was over 100 µM, the TGI [29] was over 100 µM and the TGI [30] was over 100 µM. It also gave a TGI [31] of over 100 µM, a TGI [32] of over 100 µM and a TGI [33] of over 100 µM. The TGI [34] was over 100 µM, the TGI [35] was over 100 µM and the TGI [36] was over 100 µM. The TGI [37] was over 100 µM, the TGI [38] was over 100 µM and the TGI [39] was over 100 µM. For the same molecule, the TGI [40] was over 100 µM, the TGI [41] was over 100 µM and the TGI [42] was over 100 µM. The TGI [43] was over 100 µM, the TGI [44] was over 100 µM and the TGI [45] was over 100 µM. For the same molecule, the TGI [46] was over 100 µM, the TGI [47] was over 100 µM and the TGI [48] was over 100 µM. It also gave a TGI [49] of over 100 µM, a TGI [50] of over 100 µM and a TGI [51] of over 100 µM. It also gave a TGI [52] of over 100 µM, a TGI [53] of over 100 µM and a TGI [54] of over 100 µM. It also gave a TGI [55] of over 100 µM, a TGI [56] of over 100 µM and a TGI [57] of over 100 µM. It also gave a TGI [58] of over 100 µM.
CS/C(=N\C(=S)N(C)C)N(c1ccccc1)c1nc(=[N+](C)C)ss1 showed a TGI [1] of over 100 µM, a TGI [2] of 15.4 µM and a TGI [4] of 7.04 µM. It also gave a TGI [5] of 28.1 µM, a TGI [6] of 50.3 µM and a TGI [7] of over 100 µM. It also gave a TGI [8] of 36.6 µM, a TGI [10] of 28.9 µM and a TGI [11] of 20 µM. It also gave a TGI [12] of 12.5 µM, a TGI [13] of over 100 µM and a TGI [15] of 7.04 µM. The TGI [16] was 15.9 µM, the TGI [17] was 21.7 µM and the TGI [18] was 18.1 µM. For the same molecule, the TGI [19] was 5.36 µM, the TGI [20] was over 100 µM and the TGI [21] was 19.1 µM. For the same molecule, the TGI [23] was 57.4 µM, the TGI [24] was 37.9 µM and the TGI [25] was 24.7 µM. It also gave a TGI [27] of 15.8 µM, a TGI [28] of 39.3 µM and a TGI [29] of 25.7 µM. It also gave a TGI [30] of 26.4 µM, a TGI [31] of 51.2 µM and a TGI [32] of 22.3 µM. It also gave a TGI [33] of 16.7 µM, a TGI [34] of 37.4 µM and a TGI [35] of 19.2 µM. For the same molecule, the TGI [36] was 2.28 µM, the TGI [37] was 24.6 µM and the TGI [38] was 51.7 µM. It also gave a TGI [39] of 9.22 µM, a TGI [40] of 5.98 µM and a TGI [41] of 80.2 µM. It also gave a TGI [42] of 25.5 µM, a TGI [43] of 14.8 µM and a TGI [44] of 17.3 µM. For the same molecule, the TGI [45] was 22.7 µM, the TGI [46] was 52.9 µM and the TGI [47] was over 100 µM. It also gave a TGI [49] of 6.24 µM, a TGI [50] of 16.3 µM and a TGI [51] of 7.44 µM. For the same molecule, the TGI [52] was 92.8 µM, the TGI [53] was 49.3 µM and the TGI [54] was over 100 µM. It also gave a TGI [55] of over 100 µM, a TGI [56] of 18.3 µM and a TGI [57] of 11.6 µM. For the same molecule, the TGI [58] was 8.45 µM.
